Reference: US20130261178A1, “PHENOXYPROPANOL DERIVATIVES AND THEIR USE IN TREATING CARDIAC AND CARDIOVASCULAR DISEASES” (priority 2010, published 2013)
Structures can show the parent of a compound that is named as a salt.

What was measured:
beta1-adrenoceptor = beta1-adrenoceptor (Homo sapiens, UniProt P08588); test: 3H-CGP12177 whole-cell binding, CHO cells expressing human beta1-adrenoceptor; design: expressed in transfected cells; host or cells: CHO cells; settings: 3H-CGP 12177 whole cell binding, mean ± s.e.mean; for Kd: log KD, read-out: Beta 1 Log KD (converted)
beta1-adrenoceptor, sequence (P08588 whole entry): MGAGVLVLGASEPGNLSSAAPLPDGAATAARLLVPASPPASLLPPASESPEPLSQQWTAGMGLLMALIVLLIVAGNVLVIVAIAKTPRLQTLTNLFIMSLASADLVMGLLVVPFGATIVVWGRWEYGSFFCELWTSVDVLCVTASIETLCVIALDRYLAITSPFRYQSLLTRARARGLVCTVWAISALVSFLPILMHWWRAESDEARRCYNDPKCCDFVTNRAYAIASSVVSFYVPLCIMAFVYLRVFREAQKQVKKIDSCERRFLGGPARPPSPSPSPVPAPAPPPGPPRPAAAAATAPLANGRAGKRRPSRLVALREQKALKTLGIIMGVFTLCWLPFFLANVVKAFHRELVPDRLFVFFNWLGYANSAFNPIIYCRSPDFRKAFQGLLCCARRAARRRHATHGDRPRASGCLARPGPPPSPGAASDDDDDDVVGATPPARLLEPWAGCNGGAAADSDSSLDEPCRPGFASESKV
Text: (§1) The selectivity of a ligand is given by the ratio of beta-1 to beta-2 KD.

human beta2-adrenoceptor = target: T1, human beta2-adrenoceptor (Homo sapiens, UniProt P07550); test: 3H-CGP12177 whole-cell binding, CHO cells expressing human beta2-adrenoceptor; settings: 3H-CGP 12177 whole cell binding, mean ± s.e.mean; for Kd: log KD, read-out: Beta 2 Log KD (converted)
T1 construct: expressed in transfected cells; host or cells: CHO cells
T1 sequence (P07550 whole entry): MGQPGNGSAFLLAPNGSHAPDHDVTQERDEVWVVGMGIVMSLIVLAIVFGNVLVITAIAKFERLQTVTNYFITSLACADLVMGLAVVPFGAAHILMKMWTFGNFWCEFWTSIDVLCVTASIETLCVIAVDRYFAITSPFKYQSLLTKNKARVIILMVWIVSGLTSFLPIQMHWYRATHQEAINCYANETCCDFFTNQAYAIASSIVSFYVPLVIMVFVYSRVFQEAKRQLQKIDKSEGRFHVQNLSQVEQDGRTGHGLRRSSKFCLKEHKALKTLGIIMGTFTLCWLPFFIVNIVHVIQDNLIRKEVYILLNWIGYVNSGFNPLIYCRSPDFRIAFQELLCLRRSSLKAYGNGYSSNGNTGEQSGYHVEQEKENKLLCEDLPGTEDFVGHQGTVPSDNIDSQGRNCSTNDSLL
Text: as §1

SMILES	Kd (beta1-adrenoceptor)	Kd (human beta2-adrenoceptor)	melting point	Beta 1 Log KD (beta1-adrenoceptor)	Beta 2 Log KD (human beta2-adrenoceptor)
OC(CNCCOc1cccc(Cl)c1)COc1ccc(OCCOC2CCCC2)cc1 (stereo not drawn) [65a]	74.1 nM	776 nM	–	–	–
OC(CNCCOc1ccc(-c2ccccc2)cc1)COc1ccc(OCCOC2CCCC2)cc1 (stereo not drawn) [65d]	398 nM	79400 nM	–	–	–
O=C(NCCNCC(O)COc1ccc(OCCOC2CC2)cc1)Nc1cccc(Cl)c1 (stereo not drawn) [46o, 1-(3-Chlorophenyl)-3-(2-(3-(4-(2-cyclopropoxyethoxy)phenoxy)-2-hydroxypropylamino)ethyl)urea]	13.8 nM	2950 nM	–	–	–
Oc1ccc(OCCNCC(O)COc2ccc(OCCOC3CCCC3)cc2)cc1 (stereo not drawn) (hydrate or solvate) [65e]	–	–	101 to 103 °C	–	–
COc1ccc(OCCNCC(O)COc2ccc(OCCOC3CCCC3)cc2)cc1 (stereo not drawn) [67e]	8.91 nM	794 nM	–	–	–
CCCOCCOc1ccc(OCC(O)CNCCNC(=O)Nc2cccc(Cl)c2)cc1 (stereo not drawn) [46m, 1-(2-(3-(4-(2-(Propyloxy)ethoxy)phenoxy)-2-hydroxypropylamino)ethyl)-3-(3-chlorophenyl)urea]	16.2 nM	3720 nM	–	–	–
CCCOCCOc1ccc(OCC(O)CNCCNC(=O)Nc2ccc(O)cc2)cc1 (stereo not drawn) [46n, 1-(2-(3-(4-(2-(Propyloxy)ethoxy)phenoxy)-2-hydroxypropylamino)ethyl)-3-(4-hydroxyphenyl)urea]	37.2 nM	13500 nM	–	–	–
COc1ccc(NC(=O)NCCNCC(O)COc2ccc(OCCOC3CCCC3)cc2)cc1Cl (stereo not drawn) [54b, 1-(3-Chloro-4-methoxyphenyl)-3-(2-(3-(4-(2-(cyclopentyloxy)ethoxy)phenoxy)-2-hydroxypropylamino)ethyl)urea]	19.5 nM	1510 nM	–	–	–
COC(=O)c1cccc(NC(=O)NCCNCC(O)COc2ccc(OCCOC3CCCC3)cc2)c1 (stereo not drawn) [47y, Methyl 3-(3-(2-(3-(4-(2-(cyclopentyloxy)ethoxy)phenoxy)-2-hydroxypropylamino)ethyl)ureido)benzoate]	12.3 nM	1100 nM	–	–	–
CC(C)OCCOc1ccc(OCC(O)CNCCNC(=O)Nc2cccc(Cl)c2)cc1 (stereo not drawn) [46k, 1-(2-(3-(4-(2-(Isopropyloxy)ethoxy)phenoxy)-2-hydroxypropylamino)ethyl)-3-(3-chlorophenyl)urea]	21.4 nM	5130 nM	–	–	–
Oc1ccc(OCCNCC(O)COc2ccc(OCCOC3CCCC3)cc2)cc1 (stereo not drawn) [65e]	5.75 nM	204 nM	–	–	–
NC(=O)c1ccc(OCCNCC(O)COc2ccc(OCCOC3CCCC3)cc2)cc1 (stereo not drawn) [67c]	3.31 nM	851 nM	–	–	–
NC(=O)c1cc(OCCNCC(O)COc2ccc(OCCOC3CCCC3)cc2)ccc1O (stereo not drawn) [compound 72, 5-(2-(3-(4-(2-(Cyclopentyloxy)ethoxy)phenoxy)-2-hydroxypropylamino)ethoxy)-2-hydroxybenzamide]	0.776 nM	25.1 nM	–	–	–
CC(=O)Oc1ccc(C(=O)NCCNCC(O)COc2ccc(OCCOC3CCCC3)cc2)cc1 (stereo not drawn) [62e, 4-(2-(3-(4-(2-(Cyclopentyloxy)ethoxy)phenoxy)-2-hydroxypropylamino)ethylcarbamoyl)phenyl acetate]	–	–	–	−8.42 ± 0.02	−6.27 ± 0.03
O=C(NCCNCC(O)COc1ccc(OCCOC2CCCC2)cc1)Nc1ccc(O)c(Cl)c1 (stereo not drawn) [54c, 1-(3-Chloro-4-hydroxyphenyl)-3-(2-(3-(4-(2-(cyclopentyloxy)ethoxy)phenoxy)-2-hydroxypropylamino)ethyl)urea]	7.24 nM	1020 nM	–	–	–
CC(=O)Oc1ccc(CC(=O)NCCNCC(O)COc2ccc(OCCOC3CCCC3)cc2)cc1 (stereo not drawn) [62w, 4-(2-(2-(3-(4-(2-(Cyclopentyloxy)ethoxy)phenoxy)-2-hydroxypropylamino)ethylamino)-2-oxoethyl)phenyl acetate]	–	–	–	−8.09 ± 0.03	−6.59 ± 0.02
Oc1ccc(OCCCNCC(O)COc2ccc(OCCOC3CCCC3)cc2)cc1 (stereo not drawn) (hydrate or solvate) [65f]	–	–	136 °C	–	–
O=C(NCCNCC(O)COc1ccc(OCCOCC2CC2)cc1)Nc1ccc(OCc2ccccc2)cc1 (stereo not drawn) (hydrate or solvate) [45a]	–	–	131 to 133 °C	–	–
CCOCCOc1ccc(OCC(O)CNCCNC(=O)Nc2ccc(OCc3ccccc3)cc2)cc1 (stereo not drawn) [45d]	91.2 nM	–	–	–	–
NC(=O)c1cccc(OCCNCC(O)COc2ccc(OCCOC3CCCC3)cc2)c1 (stereo not drawn) [67b]	18.2 nM	1000 nM	–	–	–
OC(CNCCOc1ccccc1-c1ccccc1)COc1ccc(OCCOC2CCCC2)cc1 (stereo not drawn) [65c]	107 nM	741 nM	–	–	–
Oc1ccc(OCCCNCC(O)COc2ccc(OCCOC3CCCC3)cc2)cc1 (stereo not drawn) [65f]	34.7 nM	794 nM	–	–	–
OC(CNCCOc1ccc(-c2ccccc2)cc1)COc1ccc(OCCOC2CCCC2)cc1 (stereo not drawn) (hydrate or solvate) [65d]	–	–	154 to 155 °C	–	–
O=C(NCCNCC(O)COc1ccc(OCCOC2CCCC2)cc1)Nc1cccc(C(=O)O)c1 (stereo not drawn) [47aa, 3-(3-(2-(3-(4-(2-(Cyclopentyloxy)ethoxy)phenoxy)-2-hydroxypropylamino)ethyl)ureido)benzoic acid hydrochloride]	77.6 nM	43650 ± 400 nM	–	–	–
OC(CNCCOc1ccc(F)cc1)COc1ccc(OCCOC2CCCC2)cc1 (stereo not drawn) [67d]	9.33 nM	1020 nM	–	–	–
OC(CNCCOc1cccc(Cl)c1)COc1ccc(OCCOC2CCCC2)cc1 (stereo not drawn) (hydrate or solvate) [65a]	–	–	73.5 °C	–	–
NC(=O)c1ccccc1OCCNCC(O)COc1ccc(OCCOC2CCCC2)cc1 (stereo not drawn) [67a]	49 nM	1050 nM	–	–	–
O=C(NCCNCC(O)COc1ccc(OCCOC2CCCC2)cc1)Nc1ccc(OCCF)cc1 (stereo not drawn) [47x, 1-(2-(3-(4-(2-(Cyclopentyloxy)ethoxy)phenoxy)-2-hydroxypropylamino)ethyl)-3-(4-(2-fluoroethoxy)phenyl)urea]	17.8 nM	1820 nM	–	–	–
O=C(NCCNCC(O)COc1ccc(OCCOC2CC2)cc1)Nc1ccc(O)cc1 (stereo not drawn) [46p, 1-(2-(3-(4-(2-Cyclopropoxyethoxy)phenoxy)-2-hydroxypropylamino)ethyl)-3-(4-hydroxyphenyl)urea]	63.1 nM	25700 nM	–	–	–
CC(C)OCCOc1ccc(OCC(O)CNCCNC(=O)Nc2ccc(O)cc2)cc1 (stereo not drawn) [46l, 1-(2-(3-(4-(2-(Isopropyloxy)ethoxy)phenoxy)-2-hydroxypropylamino)ethyl)-3-(4-hydroxyphenyl)urea]	58.9 nM	15500 nM	–	–	–

Second part, led by results:

Kd (beta1-adrenoceptor)	Kd (human beta2-adrenoceptor)	melting point	SMILES	Beta 1 Log KD (beta1-adrenoceptor)	Beta 2 Log KD (human beta2-adrenoceptor)
9.55 nM	72.4 nM	119 to 120.5 °C	Cc1ccccc1CC(=O)NCCNCC(O)COc1ccc(OCCOC2CCCC2)cc1 (stereo not drawn) [62p]	–	–
3.47 nM	57.5 nM	113.5 to 114.5 °C	O=C(Cc1ccccc1Cl)NCCNCC(O)COc1ccc(OCCOC2CCCC2)cc1 (stereo not drawn) [62j]	–	–
75.9 nM	2190 nM	–	Nc1ccccc1NC(=O)NCCNCC(O)COc1ccc(OCCOC2CCCC2)cc1 (stereo not drawn) [60a]	–	–
6.92 nM	135 nM	117 to 118 °C	O=C(Cc1cccc(Cl)c1)NCCNCC(O)COc1ccc(OCCOC2CCCC2)cc1 (stereo not drawn) [62k]	–	–
6.76 nM	110 nM	116.5 to 118 °C	O=C(Cc1cccc(F)c1)NCCNCC(O)COc1ccc(OCCOC2CCCC2)cc1 (stereo not drawn) [62h]	–	–
29.5 nM	3630 nM	–	Nc1ccc(NC(=O)NCCNCC(O)COc2ccc(OCCOC3CCCC3)cc2)cc1 (stereo not drawn) [60c]	–	–
2.4 nM	97.7 nM	122 to 124 °C	O=C(Cc1ccccc1F)NCCNCC(O)COc1ccc(OCCOC2CCCC2)cc1 (stereo not drawn) [62g]	–	–
19.1 nM	138 nM	–	O=C(Cc1ccccc1O)NCCNCC(O)COc1ccc(OCCOC2CCCC2)cc1 (stereo not drawn) [62u]	–	–
105 nM	43700 ± 701 nM	–	O=C(NCCNCC(O)COc1ccc(OCCOC2CCCC2)cc1)Nc1ccc(C(=O)O)cc1 (stereo not drawn) [47bb, 4-(3-(2-(3-(4-(2-(Cyclopentyloxy)ethoxy)phenoxy)-2-hydroxypropylamino)ethyl)ureido)benzoic acid hydrochloride]	–	–
50.1 nM	776 nM	82 to 85 °C	Cc1ccc(CC(=O)NCCNCC(O)COc2ccc(OCCOC3CCCC3)cc2)cc1 (stereo not drawn) [62r]	–	–
43.7 nM	2040 nM	–	COC(=O)c1ccc(NC(=O)NCCNCC(O)COc2ccc(OCCOC3CCCC3)cc2)cc1 (stereo not drawn) [47z, Methyl 4-(3-(2-(3-(4-(2-(cyclopentyloxy)ethoxy)phenoxy)-2-hydroxypropylamino)ethyl)ureido)benzoate]	–	–
186 nM	5890 nM	–	O=C(NCCNC[C@@H](O)COc1ccc(OCCOC2CCCC2)cc1)Nc1cccc(Cl)c1 [(R)-47l, (R)-1-(2-(3-(4-(2-(Cyclopentyloxy)ethoxy)phenoxy)-2-hydroxypropylamino)ethyl)-3-(3-chlorophenyl)urea]	–	–
9.12 nM	214 nM	132 to 133 °C	O=C(Cc1ccc(C(F)(F)F)cc1)NCCNCC(O)COc1ccc(OCCOC2CCCC2)cc1 (stereo not drawn) [62o]	–	–
4.9 nM	1410 nM	–	COc1cc(C(=O)NCCNCC(O)COc2ccc(OCCOC3CCCC3)cc2)ccc1O (stereo not drawn) [62f]	–	–
20 nM	4170 nM	–	Nc1cccc(NC(=O)NCCNCC(O)COc2ccc(OCCOC3CCCC3)cc2)c1 (stereo not drawn) [60b]	–	–
26.9 nM	302 nM	–	Cc1cccc(CC(=O)NCCNCC(O)COc2ccc(OCCOC3CCCC3)cc2)c1 (stereo not drawn) [62q]	–	–
2.82 nM	1150 nM	–	O=C(NCCNC[C@H](O)COc1ccc(OCCOC2CCCC2)cc1)Nc1cccc(Cl)c1 [(S)-47l, (S)-1-(2-(3-(4-(2-(Cyclopentyloxy)ethoxy)phenoxy)-2-hydroxypropylamino)ethyl)-3-(3-chlorophenyl)urea]	–	–
9.77 nM	91.2 nM	–	COc1ccc(CC(=O)NCCNCC(O)COc2ccc(OCCOC3CCCC3)cc2)cc1 (stereo not drawn) [62t]	–	–
18.6 nM	1780 nM	–	O=C(NCCNCC(O)COc1ccc(OCCOC2CCCC2)cc1)Nc1ccc([N+](=O)[O-])cc1 (stereo not drawn) [47w, 1-(2-(3-(4-(2-(Cyclopentyloxy)ethoxy)phenoxy)-2-hydroxypropylamino)ethyl)-3-(4-nitrophenyl)urea]	–	–
